The test system of assay [1] is TNF-alpha. Briefly: Sub-lethal endotoxemia model (LPS challenge, serum TNF-alpha). It counts as in vivo, mouse. The following applies: BN83250 subcutaneous, valerolactam oral gavage. On the procedure: We selected the sub-lethal endotoxemia model in mouse, because this has been well characterised in our laboratory (see for example Fox et al. (2002) J. Med. Chem. 45:360-70; Fox et al. (2005) J. Med. Chem. 48:867-74). The extent of systemic inflammation in response to a single intraperitoneal injection of bacterial lipopolysaccharide (LPS) can be estimated by measuring serum TNF-alpha 2 hours post challenge.
Methods: Mice (CD1 strain; adult males; 6 per group) were treated with BSCI (in an appropriate vehicle) or with vehicle alone by an appropriate route. […] Simultaneously, one set of mice at each BSCI concentration received BIM 23627 at 4mg/animal (120mg/kg) by sub-cutaneous injection (a treatment condition known to suppress classical sstr2-mediated signalling, such as GH release, in rats; Tulipano et al. (2002) 143:1218-24). Between 30mins and 1hour after dosing (a period when a maximal plasma concentration of BSCI has been achieved), the inflammatory challenge was elicited by intraperitoneal injection of 750µg of LPS (Sigma; L4130 lot#024K4077; 900,000 EU/mg).
After a further 2 hours, the animals were sacrificed by CO2 asphyxiation, and blood was drawn by cardiac puncture. Serum was prepared by conventional methods, and the level of TNF-alpha in serum was measured using an ELISA (R&D Systems; Murine Quantikine code# MTA00) performed in accordance with the manufacturer's instructions.

The test system of assay [2] is THP-1 cells. The assay can be described thus: MCP-1 induced THP-1 cell migration (Transwell) assay. The following applies: for EC50 / Emax: Homo sapiens, THP-1. It counts as cell-based, human. The protocol: Leukocyte migration was measured using the 96-well format micro Transwell^RTM assay system from Neuroprobe (Gaithersburg, MD, USA). In principle, this assay consists of two chambers separated by a porous membrane. The chemoattractant is placed in the lower compartment and the cells are placed in the upper compartment. After incubation for a period at 37°C the cells move towards the chemoattractant, and the number of cells in the lower compartment is proportional to the chemoattractant activity (relative to a series of controls).
The method was performed essentially as previously described (Reckless & Grainger (1999) Biochem. J. 340:803-11).
First, the cell suspension to be placed in the upper compartment was prepared. The THP-1 cells were pelleted by centrifugation (770 x g; 4 mins) and washed with Geys Balanced Salt Solution with 1mg/ml BSA (GBSS + BSA). This wash was then repeated, and the cells re-pelleted before being resuspended in a small volume of GBSS + BSA for counting, for example using a standard haemocytometer.
The volume of GBSS + BSA was then adjusted depending on the number of cells present so that the cells were at final density of 4.45 x 10^6 cells per ml of GBSS + BSA. This ensured that there were 100,000 THP-1 cells in each 25µl of the solution to be placed in the upper chamber of the plate.
The suspension of THP-1 cells at 4.45 x 10^6 cells/ml was divided into three pots. To one pot the BSCI was added at an appropriate final concentration, in an appropriate vehicle (for example (S)- 3-(2',2'-dimethylpropanoylamino)-tetrahydropyridin-2-one was added at 1nM from a stock solution in GBSS). To the second pot, the BSCI was added at the same concentration as in the first pot, but additionally the sstr2 antagonist was also added (for example BIM 23454 [Tulipano et al. (2002) 143:1218-24] or BIM 23627 were added at 66nM final concentration from a stock solution in GBSS). To the third pot, GBSS + BSA plus vehicle as appropriate was added so that the volumes in three pots are equal, acting as a control.
Next, the chemoattractant solution to be placed in the lower compartment was prepared. […]. Note that, as recommended by Frow et al (Med. Res. Rev. 24:276-98) this is the concentration of MCP-1 which induces maximal migration in this system. This solution was divided into three pots, as for the cell suspension. To one pot, the BSCI was added to the same final concentration as was added to the cell suspension, in the second pot the BSCI and the sstr2 antagonist were both added at the same concentration as previously added to the cell suspension, while to the remaining pot GBSS + BSA plus vehicle as appropriate was added so that the volumes in the three pots were equal. Note that the volume of liquid that needs to be added to make the addition of the BSCI and the sstr2 antagonist compounds needs to be taken into account, when establishing the final concentration of MCP-1 in the solution for the lower compartment and the final concentration of cells in the upper compartment.
Once the chemoattractant solutions for the lower wells and cell solutions for the upper chambers were prepared, the migration chamber was assembled. 29 µl of the appropriate chemoattractant solution was placed into the lower well of the chamber. Assays were performed with at least triplicate determinations of each condition. Once all the lower chambers were filled, the porous membrane was applied to the chamber in accordance with the manufacturer's instructions. Finally, 25 µl of the appropriate cell solution was applied to each upper chamber. A plastic lid was placed over the entire apparatus to prevent evaporation.
The assembled chamber was incubated at 37 °C, 5% CO2, for 2 hours. A suspension of cells in GBSS + BSA was also incubated under identical conditions in a tube: these cells were used to construct a standard curve for determining the number of cells that migrated to the lower chamber under each condition. […]

In assay [3] the test system is Jurkat T cells. The assay can be described thus: SDF-1α induced migration of parental Jurkat T cells. The assay is classed as cell-based, human. The protocol:
Jurkat T cells and Jurkat-D3B cells were induced to migrate in response to 100ng/ml SDF-1α (R&D systems; the concentration of SDF-1α which induced maximal cell migration in both lines). The BSCI BN83250 was then added at various concentrations between 0nM and 1000nM (each in triplicate) to both the upper and lower compartments (at the same concentration in each compartment, so as not to create a gradient of BSCI concentration). DMSO (1% final concentration) was used as the vehicle, and was present in all wells at equal concentration.

Where [4] appears, read: Table 3, read-out: Human chemokine-induced THP-1 migration assay ED50.
Setting [5] is: Table 3, read-out: Human chemokine-induced THP-1 migration assay Max effect (%).

The values that follow come from patent EP2401611B1, “IMPROVED METHODS FOR IDENTIFICATION” (Cambridge Enterprise Limited, priority 2009, dated 2010).

Molecules are shown by their SMILES. Where two headings read alike, the source gives them in different places.

In the case of `CCCCCCCCCCC(C)(C)C(=O)N[C@H]1CCCCNC1=O` [BN83250, (S)-3-(2',2'-dimethyldodecanoyl)amino-caprolactam], the “inhibition of LPS-induced TNF-alpha production (in words)” value in assay [1] is “dramatically inhibited”. In assay [2], the “"Classical" : "BSCI" potency ratio Human” value is under 0.00009. Further, the EC50 in assay [2] (setting [4]) is 0.09 nM; in assay [2] (Table 5, library screening hits, read-out: Chemokine-induced THP-1 cell migration assay ("BSCI" target) ED50), 0.09 nM; in assay [2] (read-out: ED50 for inhibition of chemokine-induced THP-1 cell migration), under 1 nM. In addition, the Emax in assay [2] (setting [5]) was determined as 100%; in assay [2] (Table 5, read-out: Chemokine-induced THP-1 cell migration assay ("BSCI" target) Max Effect (%)), 100%. Also, the RATIO in assay [2] (Table 5, THP-1 migration ED50 versus insulin suppression ED50) was under 0.00009. Besides, in assay [3], the “effect on SDF-1α induced migration of parental Jurkat T cell line (in words)” value is listed as “little or no effect”.
In the case of `CC(C)(C)C(=O)N[C@H]1CCCNC1=O` [Valerolactam, (S)-3-(2'2'-dimethylpropionoylamino)-tetrahydropyridin-2-one], in assay [1], the “inhibition of LPS-induced TNF-alpha production (in words)” value is listed as “dramatically inhibited”. In addition, the “potency as BSCI relative to BN83253” value in assay [2] (Fig. 5 compared with Fig. 4) is reported as 20-50 fold. The EC50 in assay [2] (setting [4]) turned out to be 0.05 nM. The Emax in assay [2] (setting [5]) turned out to be 100%. Also, in assay [2] (Table 3, THP-1 migration ED50 versus Panc-2H4 insulin suppression ED50), the “"Classical" : "BSCI" potency ratio Human” value is under 0.00005. In addition, in assay [2] (figure legends and text), the “inhibition of MCP-1 induced cell migration (in words)” value is recorded as “inhibits MCP-1 induced cell migration in a dose-dependent manner”.
